Assays:
[1] = target: T1, wild-type ALK2 (aa172-499) (Homo sapiens (Human), UniProt Q04771); assay: ADPGlo biochemical autophosphorylation assay, ALK2; conditions: 15 uM ATP
[2] = target: T1, wild-type ALK2 (aa172-499); assay: Caliper biochemical peptide phosphorylation assay, ALK2; conditions: Caliper peptide phosphorylation, 15 uM ATP; read-out: ALK2 IC50
[3] = target: ALK2 FOP mutant (aa172-499 R206H) (Homo sapiens (Human), UniProt Q04771, R206H); assay: Caliper biochemical peptide phosphorylation assay, ALK2 FOP; conditions: Caliper peptide phosphorylation, R206H, 15 uM ATP; read-out: ALK2 FOP EPK IC50
ALK5 (aa162-503) = ALK5 (aa162-503) (Homo sapiens (Human), UniProt P36897); assay: Caliper biochemical peptide phosphorylation assay, ALK5; conditions: 15 uM ATP
Summary of the method: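 Baculovirus-expressed human GS+kinase-domain constructs (10 nM) with 2 uM fluorescein-labelled peptide and 15 uM ATP in 50 mM Hepes pH 7.5, 1 mM MgCl2, 12 mM MnCl2, 1 mM DTT, 10 uM Na3VO4, 60 min at 30 °C. EDTA stop; phospho/unphosphorylated peptide separated by microfluidic electrophoresis, r = p/(p+s); IC50 at half-maximal signal inhibition.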

male Sprague Dawley rats = assay: Turpentine oil-induced increase in serum hepcidin in rats; type: in vivo, rat; conditions: for Serum hepcidin concentration: 24 h post-TO
Experimental: Measurements of serum hepcidin concentration were performed using a custom-made LC-MRM assay.
6 hours post-TO application sublingual blood samples were taken and serum was prepared from whole blood using clot activator centrifugation tubes (Sarstedt). […] 24 h post-TO application rats were sacrificed by CO2 overdosing and blood was isolated by venipuncture for serum preparation as described above. […] Statistical analyses were performed using GraphPad Prism software (GraphPad Software, Inc., La Jolla, Calif.) by two-way repeated measurement analysis of variance followed by Dunnett's multiple comparisons post-hoc test comparing treatment groups to the vehicle control group.

C57BL/6J male mice = conditions: mouse, in vivo
female Wistar rats = assay: Achilles midpoint tenotomy-induced heterotopic ossification in rats; type: in vivo, rat; conditions: 10 mg/kg q.d. oral
Description: To test whether compound A was able to prevent trauma-induced heterotopic ossification (HO) of soft tissue, we tested its therapeutic efficacy in a rat model of unilateral Achilles midpoint tenotomy (Rooney et al., Matrix 12: 274-281, 1992). To this end, the left Achilles tendon of 8-week-old female Wistar rats (body weight between 190-265 g) was completely transected using a sterile scalpel (blade number 11) under isoflurane inhalation narcosis with concomitant analgesic treatment applying 0.03 mg/kg buprenorphine for 48 hours every 10-12 h subcutaneously. Preventive oral treatment with compound A (10 mg/kg q.d.) or vehicle (sodium carboxymethyl cellulose:water:Tween 80, 0.5:99:0.5) was given for 10 weeks starting on the day of surgery (n=11-12 rats per group). […] Treatment efficacy was assessed longitudinally by taking radiographs of the operated distal leg (Faxitron LX-60 system) at 4 and 10 weeks post-tenotomy. Heterotopic bone volume was quantified in vivo by micro-computed tomography (micro-CT) under isoflurane inhalation narcosis (vivaCT40 instrument, Scanco Medical AG; 17.5 μm resolution) at 6 and 9 weeks post-surgery. […]

ALK2(Q207D) mice = assay: ALK2-dependent heterotopic ossification in ALK2(Q207D) transgenic mice; type: in vivo, mouse; conditions: 3 and 5 weeks post-induction, 10 mg/kg b.i.d. oral
[4] = tested on: 18-month-old Wistar female rats; assay: Bone gain in aged rats (pQCT and micro-CT, proximal tibia metaphysis); type: in vivo, rat; conditions: 5 mg/kg q.d. oral, 8 weeks, mean ± SEM
Experimental: To assess the bone anabolic potential of compound A, its therapeutic efficacy in aged female rats as a model of age-related human osteoporosis and other low bone mass conditions was tested. To this end, 18-month-old Wistar female rats (n=8-9 rats per group; body weight range: 330-460 g) were subjected to two-month once daily oral treatment with compound A (5 mg/kg q.d.) or vehicle (sodium carboxymethyl cellulose:water:Tween 80, 0.5:99:0.5). Rats were housed at 25° C. with a 12:12 h light-dark cycle and were fed a standard rodent diet containing 18.2% protein and 3.0% fat with an energy content of 15.8 MJ/kg (3890, Provimi Kliba SA) with food and water provided ad libitum. Treatment efficacy was determined by in vivo peripheral quantitative computed tomography (pQCT) and micro-computed tomography (micro-CT) in the left proximal tibia metaphysis under isoflurane inhalation narcosis (Stratec-Norland XCT-2000 pQCT; voxel size: 0.1 mm×0.1 mm×0.5 mm; vivaCT40 instrument, Scanco Medical AG; 12.5 μm resolution) after 8 weeks of treatment. […] The latter was related to enhanced trabecular thickness, but not number. Thus, compound A is bone anabolic in the aged skeleton.

ALK3 (aa198-525) = ALK3 (aa198-525) (Homo sapiens (Human), UniProt P36894); assay: ADPGlo biochemical autophosphorylation assay, ALK3; conditions: 15 uM ATP
ALK1 (aa166-493) = ALK1 (aa166-493) (Homo sapiens (Human), UniProt P37023); assay: Caliper biochemical peptide phosphorylation assay, ALK1; conditions: 15 uM ATP
ALK6 (aa168-495) = ALK6 (aa168-495) (Homo sapiens (Human), UniProt O00238); assay: Caliper biochemical peptide phosphorylation assay, ALK6; conditions: 15 uM ATP
[5] = tested on: HuH7 cells, BMP response element (BRE) luciferase reporter, BMP6 stimulated; assay: BMP signaling reporter gene assay; type: cell-based; conditions: Homo sapiens, Huh-7; BMP6 100 ng/ml; read-out: MSD HuH7 cell BMP reporter IC50

Chain of ALK1 (aa166-493) (P37023 166-493): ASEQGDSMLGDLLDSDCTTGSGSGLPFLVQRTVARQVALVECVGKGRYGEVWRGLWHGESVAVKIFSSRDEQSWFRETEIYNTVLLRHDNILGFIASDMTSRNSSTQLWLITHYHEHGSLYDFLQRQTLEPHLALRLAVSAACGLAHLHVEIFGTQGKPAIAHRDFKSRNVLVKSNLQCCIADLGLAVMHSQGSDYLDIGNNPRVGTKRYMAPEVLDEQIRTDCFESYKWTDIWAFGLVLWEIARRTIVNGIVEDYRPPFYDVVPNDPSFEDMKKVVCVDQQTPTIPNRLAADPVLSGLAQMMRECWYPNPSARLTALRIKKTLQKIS
Chain of ALK5 (aa162-503) (P36897 162-503): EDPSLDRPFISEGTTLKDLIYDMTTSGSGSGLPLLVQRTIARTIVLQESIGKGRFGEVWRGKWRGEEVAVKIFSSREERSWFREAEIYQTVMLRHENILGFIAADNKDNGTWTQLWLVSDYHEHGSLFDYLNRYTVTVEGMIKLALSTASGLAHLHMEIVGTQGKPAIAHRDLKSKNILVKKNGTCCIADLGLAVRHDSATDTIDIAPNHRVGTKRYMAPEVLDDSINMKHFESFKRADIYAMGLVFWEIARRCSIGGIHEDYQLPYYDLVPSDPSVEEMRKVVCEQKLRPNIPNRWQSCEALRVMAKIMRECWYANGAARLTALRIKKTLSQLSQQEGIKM
Chain of ALK2 FOP mutant (aa172-499 R206H) (Q04771 172-499 R206H): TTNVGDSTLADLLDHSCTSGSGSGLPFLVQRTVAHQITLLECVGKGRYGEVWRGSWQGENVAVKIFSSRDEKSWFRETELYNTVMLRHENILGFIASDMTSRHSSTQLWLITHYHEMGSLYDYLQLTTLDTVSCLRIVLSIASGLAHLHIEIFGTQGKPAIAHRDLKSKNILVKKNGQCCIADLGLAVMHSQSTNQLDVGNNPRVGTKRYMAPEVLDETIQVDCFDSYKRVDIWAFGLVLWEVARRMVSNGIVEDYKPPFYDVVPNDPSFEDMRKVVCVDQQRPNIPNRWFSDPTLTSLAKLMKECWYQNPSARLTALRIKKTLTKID
Chain of ALK3 (aa198-525) (P36894 198-525): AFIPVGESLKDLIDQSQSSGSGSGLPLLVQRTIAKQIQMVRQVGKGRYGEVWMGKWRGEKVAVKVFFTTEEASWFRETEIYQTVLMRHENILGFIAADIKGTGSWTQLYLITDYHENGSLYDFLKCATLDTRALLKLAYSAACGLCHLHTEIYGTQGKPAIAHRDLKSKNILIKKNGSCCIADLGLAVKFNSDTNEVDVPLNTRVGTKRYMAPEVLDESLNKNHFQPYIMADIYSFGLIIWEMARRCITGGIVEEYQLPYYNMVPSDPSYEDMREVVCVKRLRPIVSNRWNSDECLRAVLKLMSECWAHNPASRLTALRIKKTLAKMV
T1 sequence (Q04771 172-499): as the sequence (Q04771 172-499 R206H) above, with H35R counted along it
Chain of ALK6 (aa168-495) (O00238 168-495): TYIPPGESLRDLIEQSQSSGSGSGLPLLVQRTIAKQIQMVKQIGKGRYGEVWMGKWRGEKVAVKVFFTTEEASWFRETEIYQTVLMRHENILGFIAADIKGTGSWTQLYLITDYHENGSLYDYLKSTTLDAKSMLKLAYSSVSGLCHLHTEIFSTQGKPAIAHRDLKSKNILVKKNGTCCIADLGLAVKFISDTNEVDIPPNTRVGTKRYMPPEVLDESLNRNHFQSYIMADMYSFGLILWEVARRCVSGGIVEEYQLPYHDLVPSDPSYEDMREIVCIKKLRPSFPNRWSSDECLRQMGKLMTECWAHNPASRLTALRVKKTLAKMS

Row | Structure (SMILES) | IC50 [1] | IC50 [2] | IC50 [3] | IC50 (ALK5 (aa162-503)) | IC50 (ALK3 (aa198-525)) | IC50 (ALK1 (aa166-493)) | IC50 (ALK6 (aa168-495)) | IC50 [5] | other results
1 | CC(C)n1cc(-c2cncc(-c3ccc4c(c3)CC(=O)N4C)c2)ccc1=O [Example 1, 5-(1′-isopropyl-6′-oxo-1′,6′-dihydro-[3,3′-bipyridin]-5-yl)-1-methylindolin-2-one] | 0.11 µM | 0.11 µM | 0.09 µM | 2.6 µM |  |  |  |  | Serum hepcidin levels (male Sprague Dawley rats; 6 hours post-TO, 3 or 10 mg/kg p.o.): strongly suppressed; Serum hepcidin concentration (male Sprague Dawley rats; 3 mg/kg p.o.): returned to levels of vehicle-treated TO-challenged rats; Serum hepcidin concentration (male Sprague Dawley rats; 10 mg/kg p.o., p<0.001): significantly reduced; Blood hemoglobin (C57BL/6J male mice): significantly improved; Hematocrit (C57BL/6J male mice): significantly improved; Animals with radiographic evidence of beginning HO (female Wistar rats; 4 weeks post-tenotomy, vehicle 100%): 67%; Total heterotopic bone volume (female Wistar rats; 6 and 9 weeks post-surgery, versus vehicle): significant reduction of HO; Females in which heterotopic bone was absent (micro-CT) (ALK2(Q207D) mice): four of five; Heterotopic bone (total heterotopic bone volume, micro-CT), males (ALK2(Q207D) mice): absent; Female mice with radiographic evidence of HO (ALK2(Q207D) mice; vehicle 67%): one out of five; Male mice with radiographic evidence of HO (ALK2(Q207D) mice; vehicle 83%): none; Cancellous BV/TV, %-change versus baseline ([4]; micro-CT): 8.9 ± 3.0 %; Cortical thickness, %-change versus baseline ([4]; micro-CT): 12.0 ± 2.2 %; Total BMD, %-change versus baseline ([4]; micro-CT): 5.6 ± 0.6 %; Trabecular number, %-change versus baseline ([4]; micro-CT): −0.6 ± 5.4%; Trabecular thickness, %-change versus baseline ([4]; micro-CT): 11.1 ± 2.9 %; Total BMC, %-change versus baseline ([4]; pQCT): 4.3 ± 1.7 %
2 | CC(C)n1cc(-c2cncc(-c3cc(F)c4c(c3)CC(=O)N4C)c2)ccc1=O [Example 36, 7-Fluoro-5-(1′-isopropyl-6′-oxo-1′,6′-dihydro-[3,3′-bipyridin]-5-yl)-1-methylindolin-2-one] | 0.35 µM | 0.19 µM | 0.23 µM | 9.3 µM | 2.4 µM | 1.3 µM | 2.9 µM | 0.39 µM | 
3 | CC(C)CCn1cc(-c2cncc(-c3ccc4c(c3)CC(=O)N4C)c2)ccc1=O [Example 17, 5-(1′-isopentyl-6′-oxo-1′,6′-dihydro-[3,3′-bipyridin]-5-yl)-1-methylindolin-2-one] | 1.1 µM | 0.92 µM | 0.91 µM | > 10 µM | > 15.1 µM | 7 µM | > 10 µM | 1.2 µM | 
4 | CN1C(=O)Cc2cc(-c3cncc(-c4ccc(=O)n(C5CCCCO5)c4)c3)ccc21 (centres unmarked) [Example 18, 1-methyl-5-(6′-oxo-1′-(tetrahydro-2H-pyran-2-yl)-1′,6′-dihydro-[3,3′-bipyridin]-5-yl)indolin-2-one] | 1 µM | 0.71 µM | 0.6 µM | > 10 µM | > 15.1 µM | 4.7 µM | > 10 µM | 0.42 µM | 
5 | CC(C)n1cc(-c2cncc(-c3ccc4c(c3)CS(=O)(=O)N4C)c2)ccc1=O [Example 48, 1-isopropyl-5′-(1-methyl-2,2-dioxido-1,3-dihydrobenzo[c]isothiazol-5-yl)-[3,3′-bipyridin]-6(1H)-one] | 0.071 µM | 0.06 µM | 0.06 µM | 2.4 µM | 0.283 µM | 0.21 µM | 1 µM | 0.083 µM | 

— patent US11160797B2, “Pyridinone derivatives and their use as selective ALK-2 inhibitors” (NOVARTIS AG, priority 2017, dated 2021)
